In patent publication US20080032229A1, “BOTTOM ANTIREFLECTIVE COATINGS” (priority 2003, published 2008):
Like-named read-outs stand apart in the source and are kept apart here.

Assays:
[1] = Solubility of bases in propylene glycol monomethyl ether acetate (shaken overnight, visual inspection); type: physicochemical; conditions: for Solubility, 0.2 wt. % in PGMEA: 0.2 wt. % solution in propylene glycol monomethyl ether acetate, shaken ~20 hours at room temperature; for Solubility, 0.2 wt. % in PGMEA / Solubility, 0.1 wt. % in PGMEA: visual inspection; for Solubility, 0.1 wt. % in PGMEA: diluted to 0.10 wt. % in propylene glycol monomethyl ether acetate; for Solubility in the solvent of the photoresist (propylene glycol monomethyl ether acetate): concentration not given
Protocol: Several bases were evaluated for solubility in propylene glycol monomethyl ether acetate, the most commonly used solvent in photoresist compositions. A 0.2 wt. % solution of each base was made with propylene glycol monomethyl ether acetate in glass vials. The vials were then placed on a shaker and allowed to shake overnight (˜20 hours) at room temperature. The vials were then visually inspected. If the vials were clear without any haze, cloudiness or solids or crystals at the bottom of the vial, then the base was considered soluble in propylene glycol monomethyl ether acetate. If the vials had haze, cloudiness or solids or crystals at the bottom of the vial, the base was considered not soluble in propylene glycol monomethyl ether acetate. For those vials which contained base at 0.2 wt. % and were considered not soluble, additional propylene glycol monomethyl ether acetate was added to dilute the solution to 0.15 wt. %, or 0.10 wt. %. The diluted vials were then evaluated as discussed above. No further dilutions were made beyond 0.10 wt. %.

[2] = Solubility of bases in the antireflective coating solvent 4-hydroxy-4-methyl-2-pentanone; type: physicochemical
From the text: For this experiment, base A is aminophylline, which is considered an insoluble base in the solvent of the photoresist (in this experiment, propylene glycol monomethyl ether acetate) but soluble in the solvent of the antireflective coating (in this experiment, 4-hydroxy-4-methyl-2-pentanone); base B is tridodecylamine, which is soluble in both the solvent of the photoresist (in this experiment, propylene glycol monomethyl ether acetate) and the solvent of the antireflective coating (in this experiment, 4-hydroxy-4-methyl-2-pentanone). The bases were evaluated alone or as mixtures in the antireflective coatings. The antireflective coatings were prepared using a co-polymer of benzyl methacrylate—mevalonic lactone methacrylate. The photoacid generator (PAG) was triphenylsulfonium nonaflate, and the aforementioned base(s) and 4-hydroxy-4-methyl-2-pentanone as the solvent completed the antireflective coating formulations. The PAG content was kept at 1.7 wt. % of total solids of the antireflective coating formulations and the antireflective coating formulations were 1.65% total solids.

SMILES | Solubility, 0.2 wt. % in PGMEA [1] | Solubility, 0.1 wt. % in PGMEA [1] | Solubility in the solvent of the antireflective coating (4-hydroxy-4-methyl-2-pentanone) ([2]; concentration not given) | Solubility in the solvent of the photoresist (propylene glycol monomethyl ether acetate) [1] | Solubility in the solvent of the antireflective coating (4-hydroxy-4-methyl-2-pentanone) [2]
Nc1nc(N)c2[nH]cnc2n1 [2,6-Diaminopurine] | Not soluble | Not soluble |  |  | 
CN(C)c1ncnc2nc[nH]c12 [6-(Dimethylamino)purine] | Not soluble | Soluble |  |  | 
Cn1c(=O)c2[nH]c(Cl)nc2n(C)c1=O [8-Chlorotheophyllline] | Not soluble | Not soluble |  |  | 
Nc1ncnc2nc[nH]c12 [Adenine] | Not soluble | Not soluble |  |  | 
Cn1c(=O)c2[nH]cnc2n(C)c1=O [Aminophylline, reference compound] | Not soluble | Not soluble | soluble | insoluble | 
Nc1nc2nc[nH]c2c(=O)[nH]1 [Guanine] | Not soluble | Not soluble |  |  | 
c1ncc2[nH]cnc2n1 [Purine] | Not soluble | Not soluble |  |  | 
Cn1c(=O)c2[nH]cnc2n(C)c1=O [Theophylline, reference compound] | Not soluble | Soluble |  |  | 
CCCCCCCCCCCCN(CCCCCCCCCCCC)CCCCCCCCCCCC [tridodecylamine, reference compound] |  |  |  | soluble | soluble
